Experimental data taken from paper PMC7144022, “Quinolinecarboxamides Inhibit the Replication of the Bovine Viral Diarrhea Virus by Targeting a Hot Spot for the Inhibition of Pestivirus Replication in the RNA-Dependent RNA Polymerase” (Molecules, 2020).

Key:
[1] = Cytotoxicity assay, proliferation of exponentially growing MDBK cells (MTS/PMS); assay type: cell-based, bovine; settings: bovine
Procedure: Assays were carried out, as described previously.

BVDV NADL virus = assay: CPE-based antiviral assay, BVDV NADL in MDBK cells (MTS/PMS); settings: for EC50: Bovine viral diarrhea virus isolates and strains, MDBK, 72 h; for S.I.: selectivity index, CC50 vs EC50
[2] = sheet CSFCII#, potency relative to TO502-2403 (EC50 0.2 µM)
[3] = sheet CSFCI#, potency relative to TO505-6180 (EC50 0.07 µM)

Compound	CC50 at 5 days [1] [µM]	EC50 (BVDV NADL virus) [µM]	S.I. (BVDV NADL virus)	fold increase (BVDV NADL virus; [2])	fold increase (BVDV NADL virus; [3])
COc1ccc(-n2ccc(NC(=O)c3cc(-c4ccc(F)cc4)nc4ccccc34)n2)cc1 [CSFC-91, Fc1ccc(cc1)c3nc2ccccc2c(c3)C(=O)Nc4ccn(n4)c5ccc(OC)cc5]	> 100	1	100	0.20	
Cc1cc(NC(=O)c2cc(-c3ccccc3)nc3ccccc23)no1 [CSFC-40, Cc1cc(no1)NC(=O)c3cc(nc2ccccc23)c4ccccc4]	> 100	94	1	0.00213	
CC(C)(C)c1cc(NC(=O)c2cc(-c3ccccc3)nc3ccccc23)no1 [CSFC-32, O=C(Nc1cc(on1)C(C)(C)C)c3cc(nc2ccccc23)c4ccccc4]	> 100	7.2	14	0.0278	
Cc1cccc2sc(NC(=O)c3cc(-c4ccc(Cl)s4)nc4ccccc34)nc12 [CSFC-48, Clc1ccc(s1)c3nc2ccccc2c(c3)C(=O)Nc4nc5c(C)cccc5s4]	14 ± 0.7	14	1	0.0143	
Cc1ccc2nc(NC(=O)c3cccnc3)sc2c1 [CSFC-23, Cc1ccc2nc(NC(=O)c3cccnc3)sc2c1]	> 100	> 100	1		0.0007
Cc1ccc(-n2ccc(NC(=O)c3cc(-c4ccccc4)nc4ccccc34)n2)cc1 [CSFC-141, Cc1ccc(cc1)n2ccc(n2)NC(=O)c4cc(nc3ccccc34)c5ccccc5]	> 100	0.6	167	0.33	
Cc1noc(C)c1NC(=O)c1cc(-c2ccco2)nc2ccccc12 [CSFC-37, O=C(Nc1c(C)onc1C)c3cc(nc2ccccc23)c4ccco4]	> 100	34.2	3	0.00585	
Cc1c(-c2ccco2)nc2ccccc2c1C(=O)Nc1nc2c(C)cccc2s1 [CSFC-105, Cc2c(nc1ccccc1c2C(=O)Nc3nc4c(C)cccc4s3)c5ccco5]	> 100	0.7	143	0.29	
O=C(Nc1ccn(-c2ccccc2)n1)c1cc(-c2cccs2)nc2ccc(I)cc12 [CSFC-97, O=C(Nc1ccn(n1)c2ccccc2)c4cc(nc3ccc(I)cc34)c5cccs5]	> 100	4.1	24	0.05	
O=C(Nc1nc2c(F)cccc2s1)c1cc(-c2ccccc2)nc2ccccc12 [CSFC-150, Fc1cccc2sc(nc12)NC(=O)c1cc(nc2ccccc21)c1ccccc1]	8 ± 1	0.1	80		0.70
Cc1cccc2sc(NC(=O)c3cc(-c4cnccn4)nc4ccccc34)nc12 [CSFC-116, Cc1cccc2sc(nc12)NC(=O)c4cc(nc3ccccc34)c5cnccn5]	> 100	0.3	333	0.67	
COc1ccc(-c2cc(C(=O)Nc3ccn(-c4ccccc4)n3)c3ccccc3n2)cc1F [CSFC-107, COc1ccc(cc1F)c3nc2ccccc2c(c3)C(=O)Nc4ccn(n4)c5ccccc5]	> 100	0.6	167	0.33	
O=C(Nc1nc2ccccc2s1)c1cc(-c2ccccc2)nc2ccccc12 [CSFC-13, O=C(Nc1nc2ccccc2s1)c1cc(nc2ccccc21)c1ccccc1]	> 100	1.2			0.06
Cc1cccc2sc(NC(=O)c3cc(-c4cc5ccccc5o4)nc4ccccc34)nc12 [CSFC-90, Cc1cccc2sc(nc12)NC(=O)c4cc(nc3ccccc34)c5cc6ccccc6o5]	> 100	3	33	0.07	
O=C(Nc1ccccc1)c1cc(-c2ccccc2)nc2ccccc12 [CSFC-134, O=C(Nc1ccccc1)c1cc(nc2ccccc12)c1ccccc1]	> 100	> 100	1		0.0007
Cc1cc2nc(NC(=O)c3cc(-c4ccco4)nc4ccccc34)sc2cc1C [CSFC-39, Cc1cc2nc(NC(=O)c3cc(nc4ccccc43)c3ccco3)sc2cc1C]	> 100	0.6	167		0.12
COc1ccc2nc(NC(=O)c3cc(-c4cccc(F)c4)nc4ccccc34)sc2c1 [CSFC-67, Fc1cccc(c1)c3nc2ccccc2c(c3)C(=O)Nc4nc5ccc(cc5s4)OC]	> 100	0.9	111	0.22	
Cc1cccc2sc(NC(=O)c3cc(-c4ccco4)nc4c(F)cccc34)nc12 [CSFC-80, Fc5cccc1c5nc(cc1C(=O)Nc2nc3c(C)cccc3s2)c4ccco4]	> 100	0.9	111	0.22	
O=C(Nc1nc2ccc(C(F)(F)F)cc2s1)c1cc(-c2ccccc2)nc2ccccc12 [CSFC-94, FC(F)(F)c1ccc2nc(sc2c1)NC(=O)c4cc(nc3ccccc34)c5ccccc5]	> 100	100	1	0.002	

Compound	CC50 at 5 days [1] [µM]	EC50 (BVDV NADL virus) [µM]	S.I. (BVDV NADL virus)	fold increase (BVDV NADL virus; [2])	fold increase (BVDV NADL virus; [3])
O=C(Nc1ccncc1)c1cc(-c2ccccc2)nc2ccccc12 [CSFC-8, O=C(Nc1ccncc1)c1cc(nc2ccccc21)c1ccccc1]	> 100	> 100	1		0.0007
Cc1ccc2nc(NC(=O)c3cc[n+]([O-])cc3)sc2c1 [CSFC-27, [O-][n+]1ccc(cc1)C(=O)Nc1nc2ccc(C)cc2s1]	> 100	> 100	1		0.0007
Cc1cccc2sc(NC(=O)c3cc(-c4ccco4)nc4ccc(Cl)cc34)nc12 [CSFC-84, Clc1cc2c(cc1)nc(cc2C(=O)Nc3nc4c(C)cccc4s3)c5ccco5]	> 100	11.5	9	0.0174	
COc1ccc(-c2cc(C(=O)Nc3ccn(-c4ccccc4)n3)c3ccccc3n2)cc1 [CSFC-118, COc1ccc(cc1)c3nc2ccccc2c(c3)C(=O)Nc4ccn(n4)c5ccccc5]	> 100	0.3	333	0.67	
O=C(Nc1nccs1)c1cc(-c2ccccc2)nc2ccccc12 [CSFC-16, O=C(c1cc(nc2ccccc12)c3ccccc3)Nc4nccs4]	> 100	30	3	0.00667	
O=C(Nc1ccn(-c2ccc(F)cc2)n1)c1cc(-c2ccccc2)nc2ccccc12 [CSFC-128, Fc1ccc(cc1)n2ccc(n2)NC(=O)c4cc(nc3ccccc34)c5ccccc5]	> 100	0.5	200	0.40	
COc1ccc2nc(NC(=O)c3cc(-c4ccccc4)nc4ccccc34)sc2c1 [CSFC-9, COc1ccc2nc(NC(=O)c3cc(nc4ccccc43)c3ccccc3)sc2c1]	> 100	0.3	333		0.23
O=C(Nc1ccn(-c2cccc(F)c2)n1)c1cc(-c2ccccc2)nc2ccccc12 [CSFC-126, Fc1cccc(c1)n2ccc(n2)NC(=O)c4cc(nc3ccccc34)c5ccccc5]	> 100	0.6	167	0.33	
Cc1ccc2nc(NC(=O)c3cc(-c4ccccc4F)nc4ccccc34)sc2c1 [CSFC-61, Fc1ccccc1c3nc2ccccc2c(c3)C(=O)Nc4nc5ccc(C)cc5s4]	> 100	0.2	500	1.00	
O=C(Nc1nc2cc(Cl)ccc2s1)c1cc(-c2ccco2)nc2ccccc12 [CSFC-55, Clc1cc2nc(sc2cc1)NC(=O)c4cc(nc3ccccc34)c5ccco5]	> 100	100	1	0.002	
O=C(Nc1cccnc1)c1cc(-c2ccccc2)nc2ccccc12 [CSFC-7, O=C(Nc1cccnc1)c1cc(nc2ccccc21)c1ccccc1]	> 100	> 100	1		0.0007
COc1ccc2nc(NC(=O)c3cc(-c4ccco4)nc4ccc(OC)cc34)sc2c1 [CSFC-64, O=C(c2cc(nc1ccc(OC)cc12)c3ccco3)Nc4nc5ccc(cc5s4)OC]	> 100	16	6	0.0125	
COc1cccc2sc(NC(=O)c3cc(-c4cccs4)nc4ccccc34)nc12 [CSFC-89, COc1cccc2sc(nc12)NC(=O)c4cc(nc3ccccc34)c5cccs5]	> 100	0.6	167	0.33	
O=C(Nc1nc2c(Cl)cccc2s1)c1cc(-c2ccccc2)nc2ccccc12 [CSFC-15, Clc1cccc2sc(nc21)NC(=O)c1cc(nc2ccccc21)c1ccccc1]	> 100	0.8	125		0.09
Cc1cccc2sc(NC(=O)c3cc(-c4cccc(F)c4)nc4ccccc34)nc12 [CSFC-62, Fc1cccc(c1)c3nc2ccccc2c(c3)C(=O)Nc4nc5c(C)cccc5s4]	25 ± 5	25	1	0.008	
Cc1cccc(-n2ccc(NC(=O)c3cc(-c4cccnc4)nc4ccccc34)n2)c1 [CSFC-130, Cc1cccc(c1)n2ccc(n2)NC(=O)c4cc(nc3ccccc34)c5cccnc5]	5	0.02		10.00	
CCOc1ccc2nc(NC(=O)c3cc(-c4ccccc4)nc4ccccc34)sc2c1 [CSFC-58, CCOc1ccc2nc(sc2c1)NC(=O)c4cc(nc3ccccc34)c5ccccc5]	> 100	3.3	30	0.06	
O=C(Nc1ccn(-c2ccccc2)n1)c1cc(-c2cccs2)nc2ccc(F)cc12 [CSFC-93, O=C(Nc1ccn(n1)c2ccccc2)c4cc(nc3ccc(F)cc34)c5cccs5]	> 100	0.06	1667	3.33	
